Test [1] has as its target T1, human BDCA2 ectodomain (Homo sapiens, UniProt Q8WTT0).
T1 construct: huBDCA2 ectodomain: residues 257-425 above (underlined); murine IgG2a Fc (with G4S linker) (N, cleaved yes); made in house
T1 sequence (Q8WTT0 45-213): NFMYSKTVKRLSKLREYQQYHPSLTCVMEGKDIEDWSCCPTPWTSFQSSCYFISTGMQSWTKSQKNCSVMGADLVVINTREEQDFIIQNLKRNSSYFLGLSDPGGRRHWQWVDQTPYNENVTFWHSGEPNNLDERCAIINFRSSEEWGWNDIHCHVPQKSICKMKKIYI
In words: Octet binding of mAbs on anti-human Fc tips to monomeric huBDCA2. As for the experimental part:
Site-directed mutagenesis was performed using Agilent's QuikChange II mutagenesis kit following the manufacturer's recommended protocol. The C95S variant was constructed using the mutagenic primer 5′ GCAACCTATTACTGTCAACAAAGTAATGAGGATCCTCGGAC 3′ (SEQ ID NO: 38) and its reverse complement, which introduced a new HincII site, producing plasmid pEAG2678. The C95T variant was constructed using the mutagenic primer 5′ CAACCTATTACTGTCAGCAAACTAATGAAGATCCTCGGACGTTCG 3′ (SEQ ID NO: 39) and its reverse complement, which removed a BamHI site, producing plasmid pEAG2679. Mutated plasmids were identified by screening for the introduced restriction site changes. The full-length light chain cDNA sequences in the resultant plasmids were confirmed by DNA sequencing. Wildtype ch24F4 and the C95S and C95T variant mAbs were expressed transiently in 293E cells by co-transfection of pYL672 and pYL671, pEAG2678 or pEAG2679. Conditioned medium was harvested at 2 days post-transfection. Titers (assayed by Octet on anti-human Fc tips) of both variants were similar to that of wildtype ch24F4, and Western blots of nonreducing SDS-PAGE indicated no gross aggregation or obvious clipping relative to wildtype ch24F4 mAb. […] Conditioned medium containing ch24F4 and the C95 variant mAbs was assayed by Octet for binding to human BDCA2 ectodomain. Antibodies from conditioned medium from transiently transfected cells were bound to anti-human Fc tips, then monomeric huBDCA2 was flowed over the Octet tips, to examine binding and dissociation.
Conditioned medium containing ch24F4 and all hu24F4 variant mAbs was assayed by Octet for binding to human BDCA2 ectodomain. The monomeric huBDCA2 ectodomain was prepared by proteolytic cleavage from the purified muIgG2a Fc-huBDCA2 fusion protein (relevant plasmid: pEAG2423). Antibodies from conditioned medium from transiently transfected cells were bound to anti-human Fc tips, and then monomeric huBDCA2 was flowed over the Octet tips, to examine binding and dissociation.
To explore the possibility of enhancing hu24F4 affinity by substitution at the position of the 24F4 version L1 CDR L3 unpaired cysteine (C95S in hu24F4 light chain expression vector pYL740), a number of version L1 variants were constructed by site-directed mutagenesis. Backmutation to the unpaired cysteine, i.e., S95C, was constructed by site-directed mutagenesis producing plasmid pYL749. Variants S95T, S95A, and S95V were constructed by site-directed mutagenesis producing plasmids pYL750, pYL751, and pYL752, respectively. The full-length light chain cDNA sequences in the resultant plasmids were confirmed by DNA sequencing. C95 variant hu24F4 mAbs were expressed transiently in 293E cells by co-transfection of hu24F4 H4 heavy chain pYL746 or hu24F4 H5 heavy chain pYL747 with hu24F4 L1 variant light chains C95S pYL740, S95C pYL749, S95T pYL750, S95A pYL751 or S95V pYL752 plasmids. Conditioned medium was harvested at 2 days post-transfection. Titers (assayed by Octet on anti-human Fc tips) of all variants were similar, and Western blots of nonreducing SDS-PAGE indicated no gross aggregation or obvious clipping. Conditioned medium containing the C95 variant mAbs was assayed by Octet for binding to human BDCA2 ectodomain. Antibodies from conditioned medium from transiently transfected cells were bound to anti-human Fc tips, then monomeric huBDCA2 was flowed over the Octet tips, to examine binding and dissociation. C95A variants had the slowest off-rates.
(In general: Biolayer interferometry detects binding as a change in optical thickness at a sensor tip.)

Test [2] concerns BDCA2 on cynomolgus plasmacytoid dendritic cells. The test can be described thus: Flow cytometric whole blood assay, BIIB059 binding to cynomolgus pDCs. Further details: species or system cynomolgus monkey. The settings on record: Alexa647 labeled BIIB059, on ice. As for the experimental part:
Cynomolgus monkey (Toxikon, Inc, Bedford, MA) or human peripheral blood (Biogen Idec) were collected in sodium heparin collection tubes and maintained at room temperature. A FACS staining antibody cocktail for identifying pDCs was added to each whole blood aliquot, incorporating CD20, CD14, CD123 and HLA-DR antibodies. […] Blood was incubated on ice, protected from light, for 30 min. After 30 min., each 500 μL aliquot of whole blood (cyno) or 100 μL (human) was treated with 10 mL (cyno) or 2 mL (human) of 1× Easy Lyse Buffer (Leinco Technologies) that had been incubated at 37° C. for at least one hour. After a 10-15 min. incubation at room temperature, samples were centrifuged at 1400 rpm for 5 min. The supernatant was decanted, leaving only a pellet of white blood cells (WBC). Each WBC pellet was washed with 5 mL of FACS buffer (1% BSA+0.002% NaAzide+1 mM CaCl2)+1 mM MgCl2 in PBS), and centrifuged at 1400 rpm for 5 min. The supernatant was decanted, and each WBC pellet was resuspended in 200 μL of FACS buffer and transferred to a 96-well round bottom plate (Fisher Scientific). The plate was centrifuged at 1400 rpm for 5 min. The supernatant was dumped out of the plate, and each WBC pellet was washed with 200 μL of FACS buffer. […] Each WBC pellet was resuspended in 250 μL of FACS buffer and fluorescence intensity measured on a LSRII 4-color FACS machine. […]
(In general: Flow cytometry measures light scatter and fluorescence of single cells or particles in a stream.)

Test [3] has as its system BDCA2 receptor on pDCs. In words: BDCA2 and bound BIIB059 on pDC surface after dosing cynomolgus monkeys. Type of test: in vivo, cynomolgus monkey. An excerpt: At the same time point (1 hr), some free BDCA2 was observed (13%, 74%, 72% of baseline MFI).
EC10-50-90 curves were generated in GraphPad Prism software using a four-parameter fit.

Where [4] appears, read: Example 5, conditioned medium, hu24F4 variants.
The mark [5] stands for this setting: Example 6, conditioned medium, L1 position 95 variants.

“And” between values parts separate entries of the source, which are not always exact repeats. Equal entries are not always repeated.

In general, kon refers to the rate constant with which the complex forms.

Chain of BDCA2 receptor on pDCs (as listed by the source): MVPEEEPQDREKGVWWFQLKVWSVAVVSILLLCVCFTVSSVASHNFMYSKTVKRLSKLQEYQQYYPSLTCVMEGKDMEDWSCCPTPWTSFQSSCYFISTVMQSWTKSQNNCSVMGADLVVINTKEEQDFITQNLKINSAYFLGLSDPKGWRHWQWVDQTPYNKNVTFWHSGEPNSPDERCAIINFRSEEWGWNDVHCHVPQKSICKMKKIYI
Chain of BDCA2 on cynomolgus plasmacytoid dendritic cells (as listed by the source): as above

On to “24F4S: hu24F4 H4/L1 with C95S light chain; differs from BIIB059 by 1 amino acid residue”, for which the “kdis” value in test [1] (setting [4]) is 0.000408 s⁻¹; in test [1] (setting [5]) it was 0.000398 s⁻¹. Further, the “kon” value was 549000 M⁻¹ s⁻¹ in test [1] (setting [4]) and 727000 M⁻¹ s⁻¹ in test [1] (setting [5]).
For the substance “BIIB059: humanized IgG1 anti-BDCA2 antibody, mature heavy chain SEQ ID NO: 4 and mature light chain SEQ ID NO: 3”, the “EC50 of binding to pDCs” value in test [2] is given as 1-2 μg/mL. The “BIIB059 on the pDC surface” value in test [3] (IV 10 mg/kg or 1 mg/kg, from 1 hour post injection) is recorded as “no BIIB059 was detected on the surface”. The “free BDCA2 (BIIB059-A647 staining)” value in test [3] (IV 10 mg/kg or 1 mg/kg, through 38 days, except monkey 5) is recorded as “no free BDCA2”. In test [3] (IV 10 mg/kg, monkeys 3, 8, 10, 10 mg/kg), the “EC10 (ug/mL), internalization of BDCA2” value was 0.100 µg/mL and 0.095 µg/mL and 0.114 µg/mL. For the same substance, in test [3] (SC 0.2 mg/kg), the “free BDCA2 receptor over time” value is “no free BDCA2 receptor was detected until day 14”. In test [3] (SC 0.2 mg/kg, at 1 hour, disappeared by 6 hours), the “BIIB059 on the pDC surface” value is given as “briefly observed on the surface of pDCs”. Moreover, in test [3] (mean of all dosed monkeys), the “EC10 (ug/mL), Mean” value stood at 0.064 µg/mL and the “EC90 (ug/mL), Mean” value turned out to be 0.359 µg/mL.

The record behind these values is patent publication US20250304700A1, “ANTI-BLOOD DENDRITIC CELL ANTIGEN 2 ANTIBODIES AND USES THEREOF” (Biogen MA Inc., priority 2012, published 2025).
